A word on the IC50: it is the concentration that inhibits the measured activity by half.

Chain of Indoleamine 2,3-dioxygenase 1 (P14902 whole entry): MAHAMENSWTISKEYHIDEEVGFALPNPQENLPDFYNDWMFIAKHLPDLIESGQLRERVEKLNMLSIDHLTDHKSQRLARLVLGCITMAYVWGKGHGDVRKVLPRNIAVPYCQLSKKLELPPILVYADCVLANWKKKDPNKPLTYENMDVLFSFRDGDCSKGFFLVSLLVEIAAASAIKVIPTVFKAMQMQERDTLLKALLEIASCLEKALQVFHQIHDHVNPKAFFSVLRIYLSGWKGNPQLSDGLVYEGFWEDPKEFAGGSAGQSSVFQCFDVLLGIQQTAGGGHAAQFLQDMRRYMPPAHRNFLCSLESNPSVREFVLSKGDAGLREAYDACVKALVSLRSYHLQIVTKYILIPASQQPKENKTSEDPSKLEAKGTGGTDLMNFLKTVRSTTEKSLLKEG

This test addresses Indoleamine 2,3-dioxygenase 1 (Homo sapiens, UniProt P14902). Put plainly: Inhibitory Activity Assay: IDO1 (His-tag) enzyme(BPS Bioscience), L-tryptophan (Sigma), methylene blue (Sigma), Catalase originated from the liver of cattle (Sigma), L-ascorbic acid (Sigma), glycerol (Sigma), potassium dihydrogen phosphate solution (Sigma), Tween 20 (Sigma), automatic sampling platformLiquid handler (Bravo & Echo), microplate ReaderSpectraMax M5e (Molecular Devices). Test Method of Compounds: The Compounds are Determined by Absorbance Test Method:The tested compounds are dissolved in DMSO to prepare a high concentration of storage solution. The stock solution of reference compound was diluted with DMSO to prepare a 100× solution. In the first column of the working plate, 8 μL above tested compounds and 8 μL 100× reference compound were respectively added as the highest concentration, and then the highest concentrations were subjected to three times dilution to obtain 11 concentrations and prepare 100× solution. 0.5 μL solution was transferred from the above plate to the detection plate. To each well was added 0.5 μL 100× compound solution. For HPE and ZPE control wells, 0.5 μL 100% DMSO was added. 25 μL 2×IDO1 (His-tag) enzyme solution (containing L-ascorbic acid, methylene blue, and catalase) was added to each well. 25 μL reaction solution without IDO1 (His-tag) enzyme was added into HPE control well. The test plate was centrifugated at 1000 rpm for 1 minute to mix well. Then, the test plate was incubated at room temperature for 30 minutes. 25 μL above 2× substrate (L-tryptophan) solution was added to each well. The test plate was centrifugated at 1000 rpm for 1 minute to mix well. The detection plate was placed on ELISA (SpectraMax M5e), the temperature was set at 25° C., and the absorbance (OD value) was measured at 320 nm every 10 minutes till 60 minutes.<p id="p-0313" num="0311">Calculating the increase ratio of absorbance: the slope of the absorbance increase curve from 10 min to 60 min is derived from SpectralMax M5e. […].
Consider `CCNS(=O)(=O)CCCNc1nonc1C(=NO)Nc1ccc(F)c(Br)c1`, for which the IC50 was 172 nM.

With `CC(C)NS(=O)(=O)CCCNc1nonc1/C(=N/O)Nc1ccc(F)c(Br)c1`, the IC50 was 281 nM.

On to `CNS(=O)(=O)CCCNc1nonc1/C(=N/O)Nc1ccc(F)c(Br)c1`, for which the IC50 is 49 nM.

The record behind these values is ChEMBL document CHEMBL5729609, “Indoleamine-2,3-dioxygenase inhibitor, preparation method therefor and use thereof” (2023).
